The values below come from PubChem BioAssay AID608 (Sanford-Burnham Center for Chemical Genomics, 2007).

pKd: −log10 of the molar value. Activity calls are given as the source filed them. How the calls were made is not given here.

Chain of Peptidyl-prolyl cis-trans isomerase FKBP1A (Homo sapiens) (P62942 whole entry, looked up): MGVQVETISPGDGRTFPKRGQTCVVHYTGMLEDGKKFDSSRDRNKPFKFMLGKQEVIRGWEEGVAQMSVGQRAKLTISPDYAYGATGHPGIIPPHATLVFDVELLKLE

The assay has as its target Peptidyl-prolyl cis-trans isomerase FKBP1A (Homo sapiens) (UniProt P62942). As to the kind of experiment: FKBP12 binders, biophysical, NMR detection (AID 608). The settings on record: NMR binding, purified FKBP12.
As a reminder, the Kd is a measure of binding affinity in units of concentration. Consider `CN(C(=O)NC1CCS(=O)(=O)C1)C1CCCCC1` (stereo unspecified), for which the Kd was > 4 mM (inactive).
Same read-out and setting: for `CCOC(=O)c1c(C)[nH]c2ccc(O)cc12` the value was > 4 mM (inactive); for `O=c1[nH]c(=O)c2[nH]cnc2[nH]1`, > 4 mM (inactive).
As to `CCOC(=O)c1c(C)nc2sccn12`, the Kd is > 4 mM (inactive).
Same read-out and setting: with `N=C1/C(=C\c2ccccc2)C(=O)N=C2SC=NN12` the figure was > 4 mM (inactive); with `O=C1OCCC1Sc1nc2ccccc2c(=O)[nH]1` (stereo unspecified), > 4 mM (inactive); with `Nc1ncnc(NCCCO)c1[N+](=O)[O-]`, > 4 mM (inactive).
Same read-out and setting: with `CCOC(=O)c1c(C)cc(O)cc1O` the figure was > 4 mM (inactive); with `Cc1cc(C)cc(C(=O)n2cnnc2N)c1`, > 4 mM (inactive).
On the same count and under the same terms, with `Cc1ccc(C(=O)N2CCOCC2)cc1Cl` the figure was > 4 mM (inactive); with `COc1cc2ccc(=O)oc2c2ccoc12`, > 4 mM (inactive).
`O=C1C=C(Nc2ccccc2O)c2ccccc2C1=O`: the Kd is > 4 mM (inactive).
On the same count and under the same terms, with `Cc1cc(C(=O)c2c(C)nn(C)c2Cl)n(C)n1` the figure was > 4 mM (inactive); with `Cc1ccc(SCc2cc(=O)n3[nH]cnc3n2)cc1`, > 4 mM (inactive).
The same measure, in the same setting: for `Cn1ncc(C(=O)NC2CCCCC2)c1Cl` the value was > 4 mM (inactive); for `Cn1ccnc1SCc1cc(=O)[nH]c2ccccc12`, > 4 mM (inactive).
On the same count and under the same terms, for `Cn1c(SCCC(=O)O)nnc1-c1cccnc1` the value was > 4 mM (inactive); for `CC1=C(/C=C/C(C)=C/C=C/C(C)=C/CO)C(C)(C)CCC1`, > 4 mM (inactive).
For the molecule `O=C(c1ncc[nH]1)c1ccccc1C(=O)N1CCOCC1`, the Kd is > 4 mM (inactive).
Same read-out and setting: with `CCC(CCC(C)[C@H]1CCC2C3CC=C4C[C@@H](O)CC[C@]4(C)C3CC[C@@]21C)C(C)C` (stereo partly specified) the figure was > 4 mM (inactive); with `CNC(=O)C(=O)Nc1cccc(Cl)c1`, > 4 mM (inactive).
For `O=C(O)C1Cc2ccccc2O1` (stereo unspecified), the Kd was > 4 mM (inactive).
Turning to `COc1ccc2[nH]cc(CCN(C)C)c2c1`, the Kd is > 4 mM (inactive).
The same measure, in the same setting: with `C=C1C(=O)O[C@@H]2C[C@@]3(C)CCC[C@H](C)C3=C[C@H]12` the figure was > 4 mM (inactive).
On the same count and under the same terms, for `COc1cccc2c1CCC1=CC(=O)CC[C@@]12C` the value was > 4 mM (inactive); for `CCCc1nc2ccccc2c2nc(N)nn12`, > 4 mM (inactive); for `O=C(O)CCC1NCC2CC1CN1CCCCC21` (stereo unspecified), > 4 mM (inactive).
On the same count and under the same terms, with `S=C(NCc1cccnc1)NC1CC1` the figure was > 4 mM (inactive); with `CNC(=O)c1ccccc1N`, > 4 mM (inactive); with `Cc1nc2c(=O)[nH]c3ccccc3c2o1`, > 4 mM (inactive).
For `COc1ccc(NS(=O)(=O)c2ccc(N)cc2)nn1`, the Kd is > 4 mM (inactive).
Same read-out and setting: with `O=C(O)CC1C(=O)NCCN1Cc1cccs1` (stereo unspecified) the figure was > 4 mM (inactive); with `COc1ccc(S(=O)(=O)N2CCC(C(N)=O)CC2)cc1`, > 4 mM (inactive).
Still for that read-out and setting: with `CNC(=S)Nc1ccc(C(=O)O)cc1` the figure was > 4 mM (inactive); with `CC(=O)Oc1cc2c(c(C)c1OC(C)=O)CC=C1[C@@]2(C)CC[C@@]2(C)C3C[C@](C)(C(=O)O)CC[C@]3(C)CC[C@]12C` (stereo partly specified), > 4 mM (inactive).
Still for that read-out and setting: for `CC12OC(=O)CC3C(C)(C)[C@H](O)C=C[C@]3(C)C1CC[C@]1(C)C2=CC(=O)O[C@H]1c1ccoc1` (stereo partly specified) the value was > 4 mM (inactive).
With `O=C1CCN(c2ccccc2)N1`, the Kd was > 4 mM (inactive).
The pKd is the negative decadic logarithm of the Kd, by convention in mol/L. Regarding `O=C(CSc1nnc2ccccn12)N1CCOCC1`, the pKd was 3.66.
As for `O=C(O)c1ccc2snnc2c1`, the Kd was > 4 mM (inactive).
Still for that read-out and setting: for `COC(=O)N1CCN(c2ccc(C(C)=O)cc2)CC1` the value was > 4 mM (inactive); for `Cc1n[nH]c(=S)n(/N=C/c2cccs2)c1=O`, > 4 mM (inactive).
Take `COc1ccc(NC(=O)N2CCCCC2)cc1`: the Kd is > 4 mM (inactive).
Same read-out and setting: with `COc1cc(O)c(C(=O)c2ccccc2)cc1O` the figure was > 4 mM (inactive); with `Cn1c([O-])c([N+](C)(C)C)c(=O)n(C)c1=O`, > 4 mM (inactive).
On the same count and under the same terms, with `CC1(C)C[C@@H]2C(=O)CC[C@H]3O[C@]3(C)CC[C@H]21` the figure was > 4 mM (inactive); with `C[C@H]1C(=O)O[C@@H]2CCN3CC=C(COC(=O)[C@](C)(O)[C@]1(C)O)[C@H]23`, > 4 mM (inactive); with `CC(=O)Nc1ccc2c(C)cc(=O)[nH]c2c1`, > 4 mM (inactive).
The same measure, in the same setting: for `COC(=O)CC1=Nc2ccccc2NC(=O)C1` the value was > 4 mM (inactive); for `OCc1c[nH]c2ccccc12`, > 4 mM (inactive); for `Cc1nnsc1-c1onc(C)c1C(=O)O`, > 4 mM (inactive).
In the case of `CC(=O)Nc1cnn(-c2ccccc2)c(=O)c1Cl`, the Kd was > 4 mM (inactive).
The same measure, in the same setting: with `O=C1N/C(=N\c2ccccn2)SC1Cc1ccccc1` (stereo unspecified) the figure was > 4 mM (inactive).
On the same count and under the same terms, for `CC(C)=CCc1c(O)cc(C)oc1=O` the value was > 4 mM (inactive); for `COc1ccccc1C(=O)Nc1ccccn1`, > 4 mM (inactive); for `CCOC(=O)c1snnc1-c1ccccc1`, > 4 mM (inactive).
Still for that read-out and setting: for `CCOC(=O)c1c(C)nc2c(C#N)cnn2c1C` the value was > 4 mM (inactive); for `NC(=O)C1CCN(C(=S)Nc2ccccc2)CC1`, > 4 mM (inactive).
With `Cc1ccc(CN2CCN(C(=O)C3CCC3)CC2)cc1`, the Kd is > 4 mM (inactive).
On the same count and under the same terms, for `Cn1c(SCc2ccon2)nc2ccccc2c1=O` the value was > 4 mM (inactive); for `COc1c2ccoc2cc2oc(C)cc(=O)c12`, > 4 mM (inactive); for `CS(=O)(=O)Nc1ccccc1C(=O)c1ccccc1`, > 4 mM (inactive).
Still for that read-out and setting: with `C(=Nn1cnnc1)c1ccccc1` the figure was > 4 mM (inactive); with `Cc1ccc(-c2nc(-c3cccnc3)no2)cc1`, > 4 mM (inactive); with `O=C(O)c1snnc1-c1ccccc1`, > 4 mM (inactive).
Still for that read-out and setting: for `Cc1ccc(C(=O)Nc2ccncc2)o1` the value was > 4 mM (inactive); for `COc1ccc(C(=O)/C=C/c2ccccc2)cc1`, > 4 mM (inactive).
On to `O=C(O)c1cccnc1`, for which the Kd was > 4 mM (inactive).
On the same count and under the same terms, for `Cn1ncc(C(=O)O)c1-c1ccccc1` the value was > 4 mM (inactive).
On the same count and under the same terms, for `OC[C@H]1O[C@@H](n2cnc3c(NCc4ccco4)ncnc32)[C@H](O)[C@@H]1O` the value was > 4 mM (inactive).
Regarding `Cc1nn(-c2ccccc2)c(Cl)c1C(N)=O`, the Kd was > 4 mM (inactive).
Same read-out and setting: with `Cn1c(=O)c2c(ncn2CCNC2=NCCC2)n(C)c1=O` the figure was > 4 mM (inactive); with `COCC(=O)N1CCCc2ccccc21`, > 4 mM (inactive); with `CC(=O)Oc1ccc(-c2cc(=O)c3c(OC(C)=O)cc(OC(C)=O)cc3o2)cc1`, > 4 mM (inactive).
Still for that read-out and setting: for `c1cncc(C(N2CCOCC2)N2CCOCC2)c1` the value was > 4 mM (inactive); for `CNC(=O)C(=O)Nc1ccc(F)cc1`, > 4 mM (inactive); for `COc1cc(O)c2c(c1)C(=O)c1cc(C)cc(O)c1C2=O`, > 4 mM (inactive).
Same read-out and setting: with `Nc1nc2ccccc2n1CCN1CCCC1` the figure was > 4 mM (inactive); with `O=C(Cc1cccs1)Nc1nncs1`, > 4 mM (inactive).
In the case of `CN(C)C(=O)c1ccccc1-c1ccccc1`, the Kd was > 4 mM (inactive).
The same measure, in the same setting: with `CN1CCN(CC(=O)NC2CCCCC2)CC1` the figure was > 4 mM (inactive).
`CC1(C)C(=O)C=C[C@@]2(C)C1CC(=O)[C@]1(C)C2CC[C@@]2(C)[C@H](c3ccoc3)OC(=O)[C@H]3O[C@]321` (stereo partly specified): the Kd is > 4 mM (inactive).
The same measure, in the same setting: with `COc1cc2c(cc1OC)[C@@]13CCN4CC5=CCOC6CC(=O)N2C1[C@H]6[C@H]5C[C@H]43` (stereo partly specified) the figure was > 4 mM (inactive); with `COCCOc1nc2ccccc2nc1C`, > 4 mM (inactive).
Turning to `O=C1C2CC=CCC2C(=O)N1c1ccccc1` (stereo unspecified), the pKd is 4.58.
For `O=C(c1ccccc1F)N1CCN(c2ccccc2)CC1`, the Kd is > 4 mM (inactive).
Still for that read-out and setting: for `CC(=O)NCC1OCCc2ccccc21` (stereo unspecified) the value was > 4 mM (inactive).
Turning to `CC(C)NC(=S)NCc1cnn(C)c1`, the Kd was > 4 mM (inactive).
The same measure, in the same setting: with `Cn1c2c(c(=O)n(C)c1=O)CN(Cc1ccco1)CN2` the figure was > 4 mM (inactive); with `Cc1sc2nc(NCCO)[nH]c(=O)c2c1C`, > 4 mM (inactive).
Still for that read-out and setting: for `O=c1/c(=C/c2ccccc2F)sc2ncnn12` the value was > 4 mM (inactive).
On the same count and under the same terms, for `NCC1CN(Cc2ccccc2)CCO1` (stereo unspecified) the value was > 4 mM (inactive); for `O=C(O)CNC(=O)c1ccc([N+](=O)[O-])cc1`, > 4 mM (inactive).
As for `CC[C@H]1CN2CCC1C[C@@H]2[C@@H](O)c1ccnc2ccc(OC)cc12` (stereo partly specified), the Kd is > 4 mM (inactive).
On to `NC(=O)Cn1cnc2ccccc21`, for which the Kd is > 4 mM (inactive).
Still for that read-out and setting: with `NC(=O)C(=O)NCc1ccc(Cl)cc1` the figure was > 4 mM (inactive).
Turning to `COC1C(O)C(O)C(O)[C@@H](O)C1O` (stereo partly specified), the Kd is > 4 mM (inactive).
Still for that read-out and setting: with `CN(c1ccccc1C(=O)N1CCCC1)S(C)(=O)=O` the figure was > 4 mM (inactive); with `CCNC(=O)CC[C@H](N)C(=O)O`, > 4 mM (inactive); with `C[C@@H]1OC(O[C@H]2[C@H](OC(=O)[C@]34CCC(C)(C)CC3C3=CCC5[C@@]6(C)CC[C@H](OC7O[C@@H](C)[C@H](O[C@@H]8OC[C@@H](O)[C@H](O)[C@H]8O)[C@@H](O)[C@H]7O)C(C)(C)C6CC[C@@]5(C)[C@]3(C)CC4O)OC[C@H](O)[C@H]2O)[C@H](O)[C@H](O)[C@H]1O[C@@H]1O[C@H](CO)[C@@H](O)[C@H](O)[C@H]1O` (stereo partly specified), > 4 mM (inactive).
On the same count and under the same terms, for `O=C(Nn1cnnc1)c1cc2c(s1)CCCCC2` the value was > 4 mM (inactive); for `Nc1nonc1-c1nc2ccccc2[nH]1`, > 4 mM (inactive).
